Experimental findings from patent US10450326B2, “Thiazolopyrimidinone compounds and preparation methods and use thereof” (PEKING UNIVERSITY, priority 2015, dated 2019) are described below.

By Hill coefficient is commonly meant a measure of the steepness of the concentration-response curve. In general, Emax refers to the greatest response seen or fitted, relative to the assay's reference. In general, EC50 refers to the concentration giving half of the maximal effect. The Ki is the dissociation constant of the complex between target and ligand, obtained from inhibition or displacement.

The target in data set [1] is T1, α7 nAChR (Rattus norvegicus, UniProt Q05941).
T1 construct: from tissue; host or cells: rat brain (hippocampus) cell membranes
Nature of the data set: Radioisotope ligand binding assay, displacement of [3H]-Methyllycaconitine bound to rat brain cell membrane.

A further data set addresses T2, α4β2 receptors (Homo sapiens, UniProt P17787+P43681).
T2 construct: expressed in transfected cells; host or cells: Xenopus oocytes
Nature of the data set: Two-electrode voltage clamp in Xenopus oocytes, α4β2 receptor. It is filed as cell-based. As to conditions: 10 μM LD486, pre-stimulated 60 seconds, 10 μM ACh. The method, then:
(§1) FIGS. 4A and B show the response intensity curves of Xenopus oocytes stimulated by only […] Ach to α4β2 and α3β4 in the left panel, respectively.
(§2) FIGS. 4A and B show the response intensity curves of Xenopus oocytes stimulated by 10 μM ACh and […] LD486 to α4β2 and α3β4 in the right panel, respectively. Xenopus oocytes are pre-stimulated with 10 μM LD486 for 60 seconds.
(§3) Used as exogenous expression system, Xenopus oocytes are injected with different α subunits and β subunits at 1:1 ratio.
On the technique in general: Two-electrode voltage clamp is typically applied to oocytes expressing channels or transporters.

Data set [2] concerns the target T3, hERG (human ether-a-go-go related gene) channel (Homo sapiens, UniProt Q12809).
T3 construct: expressed in transfected cells; host or cells: CHO (Chinese hamster ovary) cell lines
Put plainly: Automatic patch clamp Qplate-16 assay, hERG channel expressed on CHO cell lines. It is filed as cell-based. As to conditions: CHO cells. The source says:
In the absence of LD486 or cisapride or in the presence of LD486 or cisapride at different concentrations, drug-related hERG potassium channel inhibition can lead to ventricular delayed repolarization (long QT interval syndrome), which may lead to a current intensity of fatal arrhythmia such as torsades de pointes, and even sudden death.
(In general: Patch clamp records ionic current or voltage across a cell membrane.)

Another data set addresses T4, α3β4 receptors (Homo sapiens, UniProt P30926+P32297).
T4 construct: expressed in transfected cells; host or cells: Xenopus oocytes
Nature of the data set: Two-electrode voltage clamp in Xenopus oocytes, α3β4 receptor. The data set is classed as cell-based. As to conditions: 10 μM LD486, pre-stimulated 60 seconds, 10 μM ACh. The method, then:
as §1, §2, §3

Data set [3] deals with T5, α7 nAChR (Homo sapiens, UniProt P36544).
T5 construct: expressed in transfected cells; host or cells: Xenopus oocytes (cRNA injection)
Put plainly: α7 nAChR positive allosteric modulator activity assay, voltage clamp in Xenopus oocytes with 100 μM ACh. The data set is classed as cell-based. As to conditions: for activity at 10 µM: at 10 μM compound, current induced by 100 μM ACh, Xenopus oocytes expressing α7 nAChR, read-out: Max Mod (%, at 10 μM). Here is the method:
The experimental process was as follows:
(1) Xenopus oocytes were injected with cRNA encoding α7 nAChR in order to express α7 nAChR on the cell membrane successfully;
(2) 100 μM ACh alone was added, and the α7 nAChR characteristic current caused by it was recorded as a control;
(5) The oocytes were incubated for 1 min with 10 μM compound, then 10 µM compound and 100 μM ACh were added simultaneously and the current induced by ACh was recorded at this time;
(6) The differences between the two currents in terms of peak intensity and duration were compared, with the ratio of peak intensity of the two currents representing the adjustment effect (Enhance Rate), in order to determine whether the compound had PAM activity, if the activity was good, then the subsequent test was carried out;
(7) Concentration gradient was set and the effects of compounds at different concentrations on the α7 nAChR characteristic current induced by 100 μM ACh were evaluated. Several determinations were carried out at the same concentration, and the results were presented in the form of “mean±standard deviation”;
(8) The EC50 (median maximum effect concentration) values and Max mod (the current amplitude caused by the maximal degree of adjustable endogenous agonist acetylcholine) values of the compounds and other activity data were obtained by Hill equation Inormalized=Emax/(1+(EC50/C)nH).
The amplitude of the peak current is only normalized by the amplitude produced by 100 μM ACh and different concentrations of LD486. […] It can be seen from FIG. 3 that the Hill equation is used to fit the dose-response curve and calculate the kinetic parameters.

Where [4] appears, read: potentiation of current induced by 100 μM ACh, Hill equation fit.

Entries after “also recorded” stand apart in the source; their conditions may differ.

T1 sequence (Q05941 23-502): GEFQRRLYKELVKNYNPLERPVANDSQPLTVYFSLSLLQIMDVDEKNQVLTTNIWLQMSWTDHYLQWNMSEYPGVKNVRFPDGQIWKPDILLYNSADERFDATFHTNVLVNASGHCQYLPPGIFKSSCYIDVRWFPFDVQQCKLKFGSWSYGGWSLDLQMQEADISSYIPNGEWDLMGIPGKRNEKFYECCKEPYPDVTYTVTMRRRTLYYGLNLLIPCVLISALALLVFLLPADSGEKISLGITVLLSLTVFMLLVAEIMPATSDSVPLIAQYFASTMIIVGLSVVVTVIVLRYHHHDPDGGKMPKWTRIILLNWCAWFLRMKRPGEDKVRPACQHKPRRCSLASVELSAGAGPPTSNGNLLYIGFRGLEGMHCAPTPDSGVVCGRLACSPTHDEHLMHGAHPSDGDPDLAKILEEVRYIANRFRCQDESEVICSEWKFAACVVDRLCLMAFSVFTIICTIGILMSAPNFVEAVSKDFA
T2 sequence (P43681 29-627 limits assumed): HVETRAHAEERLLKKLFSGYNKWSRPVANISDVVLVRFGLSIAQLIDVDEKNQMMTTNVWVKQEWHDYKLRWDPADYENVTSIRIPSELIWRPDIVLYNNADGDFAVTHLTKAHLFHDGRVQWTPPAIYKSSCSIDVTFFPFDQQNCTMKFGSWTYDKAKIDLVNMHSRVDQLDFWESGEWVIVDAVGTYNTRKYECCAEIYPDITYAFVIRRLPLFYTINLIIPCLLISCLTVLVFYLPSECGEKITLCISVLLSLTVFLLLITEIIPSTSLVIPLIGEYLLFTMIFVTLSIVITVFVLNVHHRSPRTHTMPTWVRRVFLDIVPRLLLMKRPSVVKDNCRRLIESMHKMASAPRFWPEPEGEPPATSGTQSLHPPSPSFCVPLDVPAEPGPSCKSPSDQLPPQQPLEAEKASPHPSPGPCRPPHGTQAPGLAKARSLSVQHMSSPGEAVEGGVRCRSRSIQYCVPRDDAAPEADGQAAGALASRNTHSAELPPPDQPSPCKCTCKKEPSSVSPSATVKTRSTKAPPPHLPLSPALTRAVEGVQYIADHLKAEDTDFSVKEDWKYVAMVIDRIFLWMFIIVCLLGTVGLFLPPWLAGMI
T2 sequence (P17787 26-502): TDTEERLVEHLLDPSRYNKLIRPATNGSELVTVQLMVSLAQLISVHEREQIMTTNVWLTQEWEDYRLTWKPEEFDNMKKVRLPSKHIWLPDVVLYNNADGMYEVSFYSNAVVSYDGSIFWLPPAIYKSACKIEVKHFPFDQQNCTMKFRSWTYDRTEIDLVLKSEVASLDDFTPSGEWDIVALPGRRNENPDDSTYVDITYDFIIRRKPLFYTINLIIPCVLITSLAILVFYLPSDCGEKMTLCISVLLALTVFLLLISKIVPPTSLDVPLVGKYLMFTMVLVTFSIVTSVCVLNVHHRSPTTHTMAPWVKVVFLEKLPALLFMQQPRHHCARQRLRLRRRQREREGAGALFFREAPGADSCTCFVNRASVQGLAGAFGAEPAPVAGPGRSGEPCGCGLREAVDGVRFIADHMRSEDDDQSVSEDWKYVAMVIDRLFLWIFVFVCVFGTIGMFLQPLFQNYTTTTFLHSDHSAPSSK
T4 sequence (P32297 32-505): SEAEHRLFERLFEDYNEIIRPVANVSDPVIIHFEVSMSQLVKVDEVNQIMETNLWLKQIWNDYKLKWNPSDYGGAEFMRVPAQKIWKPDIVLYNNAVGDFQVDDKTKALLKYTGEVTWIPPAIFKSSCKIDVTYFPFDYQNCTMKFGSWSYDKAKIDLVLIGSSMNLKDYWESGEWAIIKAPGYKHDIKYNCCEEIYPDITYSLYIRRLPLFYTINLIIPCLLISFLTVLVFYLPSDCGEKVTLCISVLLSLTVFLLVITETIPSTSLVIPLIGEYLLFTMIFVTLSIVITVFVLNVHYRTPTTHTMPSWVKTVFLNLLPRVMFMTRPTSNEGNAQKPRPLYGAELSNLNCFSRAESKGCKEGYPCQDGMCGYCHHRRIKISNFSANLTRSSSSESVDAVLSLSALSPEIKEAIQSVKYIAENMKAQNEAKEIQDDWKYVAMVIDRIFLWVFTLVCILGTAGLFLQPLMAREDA
T4 sequence (P30926 22-498): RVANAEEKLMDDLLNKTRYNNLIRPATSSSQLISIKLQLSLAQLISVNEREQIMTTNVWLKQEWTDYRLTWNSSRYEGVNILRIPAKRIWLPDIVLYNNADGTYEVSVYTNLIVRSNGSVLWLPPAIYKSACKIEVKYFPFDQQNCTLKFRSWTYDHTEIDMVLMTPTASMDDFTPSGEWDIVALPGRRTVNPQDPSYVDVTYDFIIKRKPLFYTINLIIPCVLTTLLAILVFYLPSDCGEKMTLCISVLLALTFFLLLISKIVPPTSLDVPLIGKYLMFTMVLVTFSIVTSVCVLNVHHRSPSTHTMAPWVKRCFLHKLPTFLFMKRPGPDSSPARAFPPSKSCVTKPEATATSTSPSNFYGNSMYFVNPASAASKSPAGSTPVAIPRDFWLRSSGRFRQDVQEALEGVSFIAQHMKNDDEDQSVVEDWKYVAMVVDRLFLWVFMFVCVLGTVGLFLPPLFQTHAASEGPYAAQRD
T3 sequence (Q12809 whole entry): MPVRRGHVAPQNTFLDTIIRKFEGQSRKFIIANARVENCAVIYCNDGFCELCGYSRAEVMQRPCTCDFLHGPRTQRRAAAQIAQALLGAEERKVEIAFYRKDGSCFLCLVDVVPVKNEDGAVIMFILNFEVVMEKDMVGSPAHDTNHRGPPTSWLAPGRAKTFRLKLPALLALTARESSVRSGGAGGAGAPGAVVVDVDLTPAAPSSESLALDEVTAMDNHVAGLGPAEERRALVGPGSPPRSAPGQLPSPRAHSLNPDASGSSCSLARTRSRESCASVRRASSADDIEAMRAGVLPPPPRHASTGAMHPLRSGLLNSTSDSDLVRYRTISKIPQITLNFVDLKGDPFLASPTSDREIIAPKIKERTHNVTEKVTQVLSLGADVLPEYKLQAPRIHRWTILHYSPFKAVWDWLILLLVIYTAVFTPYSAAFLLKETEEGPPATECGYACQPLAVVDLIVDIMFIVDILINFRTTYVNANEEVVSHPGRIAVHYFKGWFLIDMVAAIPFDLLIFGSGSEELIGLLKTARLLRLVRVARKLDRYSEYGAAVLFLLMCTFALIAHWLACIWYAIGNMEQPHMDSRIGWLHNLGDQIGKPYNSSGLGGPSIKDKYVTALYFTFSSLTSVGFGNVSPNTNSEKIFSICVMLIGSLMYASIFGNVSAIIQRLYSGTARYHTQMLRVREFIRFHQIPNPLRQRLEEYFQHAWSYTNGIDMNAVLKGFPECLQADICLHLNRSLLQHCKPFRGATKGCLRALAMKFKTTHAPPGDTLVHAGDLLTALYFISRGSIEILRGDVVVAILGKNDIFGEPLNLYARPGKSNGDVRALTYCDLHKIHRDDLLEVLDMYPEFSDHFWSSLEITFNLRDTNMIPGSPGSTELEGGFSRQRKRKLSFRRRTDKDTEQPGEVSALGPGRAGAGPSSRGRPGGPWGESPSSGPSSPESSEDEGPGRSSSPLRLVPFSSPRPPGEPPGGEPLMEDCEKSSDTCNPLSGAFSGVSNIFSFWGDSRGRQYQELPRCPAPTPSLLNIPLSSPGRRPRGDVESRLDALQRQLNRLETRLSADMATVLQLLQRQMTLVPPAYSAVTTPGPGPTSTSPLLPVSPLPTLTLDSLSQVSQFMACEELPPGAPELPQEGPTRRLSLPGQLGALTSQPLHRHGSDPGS
T5 sequence (P36544 23-502): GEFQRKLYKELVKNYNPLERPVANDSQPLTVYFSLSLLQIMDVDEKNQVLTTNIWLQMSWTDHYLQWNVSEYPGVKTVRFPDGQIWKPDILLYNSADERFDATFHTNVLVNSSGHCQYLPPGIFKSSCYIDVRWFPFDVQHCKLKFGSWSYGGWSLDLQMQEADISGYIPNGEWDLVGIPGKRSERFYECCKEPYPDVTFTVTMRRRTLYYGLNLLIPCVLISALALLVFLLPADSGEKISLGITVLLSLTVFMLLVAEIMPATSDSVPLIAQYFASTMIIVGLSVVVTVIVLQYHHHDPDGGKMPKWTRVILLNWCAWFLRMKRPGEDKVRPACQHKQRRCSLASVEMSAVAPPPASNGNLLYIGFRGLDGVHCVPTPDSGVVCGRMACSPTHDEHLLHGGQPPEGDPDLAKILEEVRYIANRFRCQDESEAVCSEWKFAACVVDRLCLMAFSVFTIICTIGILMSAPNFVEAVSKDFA

Regarding `Cc1nc(Cl)cc(Nc2nc3ncn(-c4c(C)cccc4Cl)c(=O)c3s2)n1` [LD486, 2-((6-Chloro-2-methylpyrimidin-4-yl)amino)-6-(2-chloro-6-methylphenyl)thiazolo[4,5-d]pyrimidin-7(6H)-one], the “effect on binding of [3H]-MLA to α7 nAChR” value on α7 nAChR [1] (concentration increased to 10 μM, hippocampus of rats) was “does not affect; also recorded: not reduced”. Also, the “effect on current of α4β2 receptors” value at α4β2 receptors is listed as “did not increase; also recorded: no significant effect”. The “inhibitory effect on the hERG channel” value in data set [2] is “no inhibitory effect; also recorded: slight inhibitory effect”. Besides, at α3β4 receptors, the “effect on current of α3β4 receptors” value is reported as “did not increase; also recorded: no significant effect”. For the same compound, the “maximal degree of adjustable endogenous agonist ACh current amplitude” value at α7 nAChR [3] (FIG. 3, Hill equation fit) is reported as “about 3.2 times”. Besides, the Hill coefficient on α7 nAChR [3] (FIG. 3, n=6) is recorded as 1.4±0.2. Besides, the Emax at α7 nAChR [3] (FIG. 3, normalized to 100 μM ACh, repeated 6 times) turned out to be 320%. The compound also had an EC50 at α7 nAChR [3] (FIG. 3 concentration response curve, 100 μM ACh, n=6) of 3.2 ± 0.3 µM. On α7 nAChR [3] (LD486 0.1-10 μM alone, without ACh, FIG. 2), the “induction of α7 nAChR characteristic current by compound alone” value is “does not induce”. In addition, the activity at 10 µM on α7 nAChR [3] is 320%. On α7 nAChR [3] (incubation 1 min, then same concentration of LD486 plus 100 μM ACh, FIG. 2), the “current amplitude induced by 100 μM ACh compared with the control group” value is “significantly increased”. Besides, the Ki on α7 nAChR [3] (summary statement, read-out: Ki value as an α7nAChR PAM) was around 3 µM.

For the compound `COc1ccc(Sc2nc3ncn(-c4c(C)cccc4Cl)c(=O)c3s2)cc1` [LYH150909, 6-(2-Chloro-6-methylphenyl)-2-((4-methoxyphenyl)thio)thiazolo[4,5-d]pyrimidin-7(6H)-one], the activity at 10 µM on α7 nAChR [3] came to 110%.

Take `Cc1cccc(Cl)c1-n1cnc2nc(Sc3ccccc3)sc2c1=O` [LYH151120, 6-(2-Chloro-6-methylphenyl)-2-(phenylthio)thiazolo[4,5-d]pyrimidin-7(6H)-one]: the activity at 10 µM at α7 nAChR [3] came out at 380%. At α7 nAChR [3] (setting [4]), the concentration for a half-maximal effect (EC50) worked out at 10 µM.

With `Cc1cccc(Cl)c1-n1cnc2nc(Sc3cccc(F)c3)sc2c1=O` [LYH151215, 6-(2-Chloro-6-methylphenyl)-2-((3-fluorophenyl)thio)thiazolo[4,5-d]pyrimidin-7(6H)-one], at α7 nAChR [3] (setting [4]), the 50% effective concentration (EC50) was found to be 10 µM.

`O=C(N[C@H]1CN2CCC1CC2)c1ccc(Cl)cc1` [PNU-282987, reference compound] gave a Ki at α7 nAChR [1] (displacement of [3H]-MLA, rat brain cell membrane, FIG. 1) of 0.0341 ± 0.0043 µM.
